Test results reported in patent publication US7972785B2, “Biomarkers for liver fibrotic injury” (Industrial Technology Research Institute (ITRI), priority 2006, dated 2011).

Legend:
[1] = system: rat liver transcripts; experiment: Affymetrix Rat Genome U34A microarray gene expression profiling of liver of DMN-treated rats; type: in vivo
Excerpt: Protocols and reagents for hybridization, washing and staining followed Affymetrix's instructions, which may be retrieved from Affymetrix's company website. Labeled cRNA was hybridized to the Affymetrix GeneChip Test 3 Array to verify the quality prior to hybridization to the Affymetrix Rat Genome U34A Array.
The microarray images were transformed into text files containing intensity information using GENECHIP® Operating Software (GCOS) developed by ® Affymetrix. The microarray datasets were then analyzed using GENESPRING® 7.2 software (Silicon Genetics, Redwood City, Calif., U.S.A.)
Over the six week time course of the experiment, the liver tissues of 12 control animals and 12 DMN-treated rats (2 rats for each time point) were selected to perform microarray experiments. Before any statistical analyses were applied to the microarray data, reproducibility was assessed. Genes were selected as present when they were assigned a present call according to the perfect match (PM)/mismatch (MM) algorithm of Affymetrix in all gene chips (28). Of the 8799 probe sets analyzed, overall expression patterns for 2385 transcripts on the chips were reported to be present (P<0.05). […] Scattered graphs of expression levels of the 2385 transcripts represented on the microarray were compared with each other. The relationship between the experimental chips in the microarray analysis was analyzed by linear regression. Overall, there was no statistical difference, with 3.2% of transcripts deviating more than 2-fold. To investigate the time course variability, the reliable signals of these 2385 probe sets between the first and sixth week of controls, were calculated. Again, there was no statistical difference, with 4.6% of transcripts deviating more than 2-fold. In contrast, a significant scatter was found between controls and DMN-treated groups, with 28.7% of transcripts deviating more than 2-fold. […]

[2] = system: rat liver; experiment: Histopathological examination of DMN-induced liver damage; type: in vivo
Procedure: A rat hepatic fibrosis model was set up through the use of DMN. DMN is a potent hepatoxin that specifically targets the liver and can cause liver fibrosis. The histopathological changes resulting from DMN treatment involve the rapid deposition of collagen, the major protein of fibrosis and important to the process of cirrhosis. […] The DMN-induced liver fibrosis model was performed as described in Jezequel A. M. et al. (14). Male Sprague-Dawley rats (Slc:SD; Japan SLC, Shizuoka, Japan), weighing from 300 to 350 grams, were used in the experiments. To induce hepatic fibrosis over a six-week time course experiment, the rats were given DMN (Sigma, Saint Louis, Mo.), dissolved in normal saline, three consecutive days a week for the first three consecutive weeks at the dosage of 6.7 mg/kg per body weight by intraperitoneal injection. Injection time points are shown as inverted triangles in FIG. 1. Injections were at a much lower dosage than those used in other experiments where the dosage was 100 mg/kg/day. The higher dosage can cause toxicity in rat liver (21, 22).)
Two to seven rats at each time point were treated with either DMN or with an equal volume of normal saline without DMN as the control (26 DMN-treated rats and 24 control rats). Rats were weighed and sacrificed on days 11, 18, 25, 32, 39, and 46 (sacrifice time points are shown as triangles in FIG. 1A) respectively. These triangular time points were designated as weeks 1 through 6 (FIG. 1A).
Liver tissues were immediately removed after sacrifice and subject to histopathological examination. The fixed liver samples were then processed for paraffin embedding. Five micrometer (5 μm) sections were prepared for hematoxylin and eosin staining (to score necroinflammatory and fatty changes) and for Sirius red/fast green collagen staining (to score for fibrosis) (23). The fatty changes were classified as presence (+) or absence (−).
In FIG. 2A, the representative phenotypes of the DMN-induced rat liver fibrosis were characterized by scoring the four histopathological features (necrosis, inflammation, fibrosis, and fatty change) as follows: the necrosis scores were from N0 to N3 (the first panel), and the inflammation scores were from I0 to I3. The scoring system for examining the intensity of liver fibrosis was modified from the scoring system of the Hepatitis Activity Index (HAI) (29, 30). Fibrosis was divided into four scores: normal (F0), fibrous expansion of portal tracts (F1), bridging fibrosis (F2) and frequent bridging fibrosis with focal nodule formation (F3). The fatty change was scored as present (+) or absent (−), respectively (the last panel). The images of the fatty change are shown at 200× magnification, whereas the others are shown at 100× magnification (FIG. 2A).
The results were ranked by time course. The necroinflammatory scores were the sum of the necrosis and inflammation scores and range from A0 to A6. The necroinflammatory change was divided into three grades: A0=none, A(1-3)=mild and A(4-6)=moderate necroinflammation. The fibrosis change was divided into two grades: F(0-1)=normal to fibrous expansion of portal tracts, F(2-3)=bridge fibrosis to frequent bridging fibrosis with nodule formation. The fatty change was shown as presence (+) or absence (−). The number of rats was counted and used to calculate the percentage of each histopathological level at each time point.

CN(C)N=O [DMN, Dimethylnitrosamine]
transcripts deviating more than 2-fold between controls and DMN-treated groups ([1]; 2385 present transcripts): 28.7% | Timp1 expression elevation in DMN treated rats ([1]; microarray): more than twenty | CD63 expression ([1]; microarray, after DMN treatment): up-regulated | abnormality in the kidney or spleen ([2]; DMN-treated rats, data not shown): no clear abnormality | DMN-treated rats with none (F0) or low levels of fibrosis (F1) ([2]; first two weeks, 6.7 mg/kg i.p.): seventy-five | DMN-treated rats with F2 and F3 fibrosis ([2]; last two weeks): 78% | treated rats with fatty changes present ([2]; six-week time course): 3.7% | DMN-treated rats with high levels of fibrosis (F2 to F3) ([2]; third to fourth week): ~90%
